“And” between values parts separate entries of the source, which are not always exact repeats. Identical values can stand only once. Like-named read-outs stand apart in the source and are kept apart here.
Key:
[1] = in vivo; format: in vivo; design: AUC0-t (ng · h/g or ng · h/ml): concentration or dose not given beside the values
[2] = Immunosuppressive activity assay: cytotoxicity; format: cell-based
[3] = tested on: T Cells; test: Immunosuppressive activity assay: T cells inhibitory activity; format: cell-based; conditions: T-cell; Table 10
[4] = MTT cytotoxicity on mouse spleen lymphocytes; format: cell-based, BALB/c mice; conditions: BALB/c, MTT assay
Procedure: 3-(4,5-dimethylthylthiazol-2-yl)-2,5-diphenyl tetrazolium bromide (MTT) assay was adopted to measure the effect of the in vitro administered compound on the activity of the spleen lymphocytes of normal mice, and evaluate the cytotoxicity of the compound.
They were dissolved in DMSO before testing to prepare a stock solution, which was diluted to a desired concentration with the medium when use.
100 μl cell suspension of mouse spleen lymphocytes was inoculated on a 96-well plate (4×10^5 per well), and the compound at different concentrations was added therein, including additional solvent control or medium background control, wherein, the total volume of each well was 200 μl. After the 96-well plate was placed in an incubator at 37° C. with 5% CO2 for 48 hours, 20 μl (5 mg/ml) of MTT solution was added 6 to 7 hours before the end of incubation. Then after the incubation was completed, 100 μl of supernatant was removed for each well, and 100 μl of […] was added therein. After the 96-well plate was placed in the incubator for 6 to 7 hours, OD values were determined on an ELISA Reader at the wavelength of 570 nm.

[5] = tested on: normal mouse spleen T lymphocytes induced by ConA; test: 3H-TdR incorporation, ConA-induced T lymphocyte proliferation; format: cell-based, BALB/c mice; conditions: read-out: IC50, proliferation of T lymphocytes induced by ConA
Procedure: ^3H-thymidine incorporation was adopted to measure the effect of the in vitro administered compound on the proliferation function of the spleen lymphocytes of normal mice induced by a mixed culture of mitogen/allogeneic mouse spleen lymphocytes, and evaluate the in vitro immunosuppressive activity of the compound.
Measurement of the effects of compounds on the proliferation function of mouse spleen lymphocytes induced by mitogen by ^3H-TdR incorporation: 100 μl cell suspension of mouse spleen lymphocytes was inoculated on a 96-well plate (4×10^5 per well), followed by addition of 50 μl of ConA (final concentration: 5 μg/ml), 50 μl of LPS (final concentration: […]) or 50 μl of compound at different concentrations. The total volume of each well was 200 μl. The test was carried out in triplicate wells for each concentration, and included control wells without ConA/LPS or the compound. After the 96-well plate was placed in an incubator at 37° C. with 5% CO2 for 48 hours, 25 μl of ^3H-thymidine (10 μCi/ml) was added in each well 8 hours before the end of incubation. […] The amount of ^3H-TdR incorporated in cell DNA was determined by a Beta cell counter (MicroBeta Trilux, PerkinElmer), and the cell proliferation was represented as a cpm value.

[6] = tested on: human osteosarcoma U2SO xenograft; test: U2SO xenograft on nude mice; conditions: 1-5/3 w; for TV (mm^3) d0: baseline
[7] = tested on: human rhabdomyosarcoma RH-30 xenograft; test: RH-30 xenograft on nude mice; conditions: for TV (mm^3) d0: baseline;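 on all read-outs here: male BALB/cA nude mice with subcutaneous RH-30 tumors, oral dosing versus solvent-fed controls, caliper tumor volume, RTV relative to grouping day, T/C as treated RTV over control RTV ×100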
Description: Animals: BALB/cA nude mice, male, 40-45 days old, body weight: 21±2 g, provided by Shanghai Institute of Materia Medica, Chinese Academy of Sciences. License No.: SCXK (Shanghai) 2004-0002. Animal number in each group: 6 in negative control group, and 6 in administration group.
The amount of inoculated cells was 5×10^6. After the xenograft was formed by inoculation, it was used after passed for 3 generations in nude mice.

[8] = Table 10, read-out: Cytotoxicity CC50
[9] = Table 2, 5 mg/kg p.o, 1-5 × 3 w
[10] = Table 2, 10 mg/kg p.o, 1-5 × 3 w
[11] = 0.5 h after administration, individual animals
[12] = 2.0 h after administration, individual animals
[13] = 5.0 h after administration, individual animals
[14] = 12 h after administration, individual animals
[15] = 48 h after administration, individual animals

## CO[C@H]1C[C@@H]2CC[C@@H](C)[C@@](O)(O2)C(=O)C(=O)N2CCCC[C@H]2C(=O)O[C@H]([C@H](C)C[C@@H]2CC[C@@H](O)[C@H](OC)C2)CC(=O)[C@H](C)/C=C(\C)[C@@H](O)[C@@H](OC)C(=O)[C@H](C)C[C@H](C)/C=C/C=C/C=C/1C [Rapamycin]
[1]; nude, mouse, in vivo
  AUC0-t (ng · h/g or ng · h/ml): 1455 ng·h/mL
[1]; nude, mouse, in vivo, 0.5 h
  Sirolimus concentration, Liver, Mean Value: 473 ng/g
  Sirolimus concentration, Tumor, Mean Value: 20.6 ng/g
[1]; nude, mouse, in vivo, 2 h
  Sirolimus concentration, Blood Plasma, Mean Value: 121 ng/mL
  Sirolimus concentration, Liver, Mean Value: 193 ng/g
  Sirolimus concentration, Tumor, Mean Value: 50.8 ng/g
[1]; nude, mouse, in vivo, 5 h
  Sirolimus concentration, Blood Plasma, Mean Value: 84.7 ng/mL
  Sirolimus concentration, Liver, Mean Value: 139 ng/g
  Sirolimus concentration, Tumor, Mean Value: 41.7 ng/g
[1]; nude, mouse, in vivo, 12 h
  Sirolimus concentration, Liver, Mean Value: 54.2 ng/g
  Sirolimus concentration, Tumor, Mean Value: 33.2 ng/g
[1]; nude, mouse, in vivo, 48 h
  Sirolimus concentration, Blood Plasma, Mean Value: 4.04 ng/mL
  Sirolimus concentration, Liver, Mean Value: 15.8 ng/g
  Sirolimus concentration, Tumor, Mean Value: 25.9 ng/g
[2]; Table 10, value beyond the >100 μM bound, read-out: Cytotoxicity CC50, value in brackets
  CC50: 3600 µM
[2]; [8]
  CC50: > 100 µM
[3]
  IC50: 4.2 µM
[4]
  CC50 at 48 h: 45.5 µM
[5]
  IC50: 0.196 µM
[6]; Table 5, oral 2.5 mg/kg
  Body Weight (g) end: 18.5 g
  Body Weight (g) start: 19.7 g
  RTV: 15 ± 5.1
  T/C (%): 60.0%
  TV (mm^3) d21: 1230 ± 344 mm^3
  TV (mm^3) d0: 85 ± 24 mm^3
[6]; Table 5, oral 5 mg/kg
  Body Weight (g) end: 17.5 g
  Body Weight (g) start: 19.5 g
  RTV: 15 ± 3.4
  T/C (%): 59.0%
  TV (mm^3) d0: 86 ± 20 mm^3
[7]; [9]
  Body Weight (g) end: 27.0 g
  Body Weight (g) start: 23.7 g
  RTV: 5.5 ± 1.8
  T/C (%): 61.8%
  TV (mm^3) d21: 650 ± 326 mm^3
  TV (mm^3) d0: 124 ± 65 mm^3
[7]; [10]
  Body Weight (g) end: 25.7 g
  Body Weight (g) start: 23.3 g
  RTV: 3.1 ± 0.7
  T/C (%): 35.7%
  TV (mm^3) d0: 136 ± 57 mm^3
[7]; Table 4, 2.5 mg/kg po, 1-5/2 w
  Body Weight (g) end: 21.8 g
  Body Weight (g) start: 20.2 g
  RTV: 2.8 ± 0.8
  T/C (%): 63.7%
  TV (mm^3) d14: 440 ± 157 mm^3
  TV (mm^3) d0: 164 ± 67 mm^3
[7]; Table 4, 5 mg/kg po, 1-5/2 w
  Body Weight (g) end: 20.3 g
  Body Weight (g) start: 19.8 g
  RTV: 2.4 ± 1.0
  T/C (%): 54.4%
  TV (mm^3) d14: 362 ± 100 mm^3
  TV (mm^3) d0: 159 ± 32 mm^3

## CO[C@H]1C[C@@H]2CC[C@@H](C)[C@@](O)(O2)C(=O)C(=O)N2CCCC[C@H]2C(=O)O[C@H]([C@H](C)C[C@@H]2CC[C@@H](OC(=O)OCC(O)CO)[C@H](OC)C2)CC(=O)[C@H](C)/C=C(\C)[C@@H](O)[C@@H](OC)C(=O)[C@H](C)C[C@H](C)/C=C/C=C/C=C/1C (stereo partly shown) [Y31]
[1]; [11]
  Y31 (prototype) concentration, Blood Plasma: 2.47 ng/mL and 3.03 ng/mL
  Y31 (prototype) concentration, Liver: 14.3 ng/g and 6.24 ng/g and 8.61 ng/g
  Y31 (prototype) concentration, Tumor: BLQ (BLQ: below the limit of Quantitation, 0.2 ng/ml (blood plasma); 1.0 ng/g(tissue))
[1]; [12]
  Y31 (prototype) concentration, Blood Plasma: 0.70 ng/mL and 0.58 ng/mL and 0.20 ng/mL
  Y31 (prototype) concentration, Liver: 13.4 ng/g and 17.4 ng/g
  Y31 (prototype) concentration, Tumor: BLQ (BLQ: below the limit of Quantitation, 0.2 ng/ml (blood plasma); 1.0 ng/g(tissue))
[1]; [13]
  Y31 (prototype) concentration, Blood Plasma: BLQ (BLQ: below the limit of Quantitation, 0.2 ng/ml (blood plasma))
  Y31 (prototype) concentration, Liver: 0.88 ng/g and 0.91 ng/g and 2.16 ng/g
  Y31 (prototype) concentration, Tumor: BLQ (BLQ: below the limit of Quantitation, 0.2 ng/ml (blood plasma); 1.0 ng/g(tissue))
[1]; [14]
  Y31 (prototype) concentration, Blood Plasma: BLQ (BLQ: below the limit of Quantitation, 0.2 ng/ml (blood plasma))
  Y31 (prototype) concentration, Liver: BLQ (BLQ: below the limit of Quantitation, 0.2 ng/ml (blood plasma); 1.0 ng/g(tissue))
  Y31 (prototype) concentration, Tumor: BLQ (BLQ: below the limit of Quantitation, 0.2 ng/ml (blood plasma); 1.0 ng/g(tissue))
[1]; [15]
  Y31 (prototype) concentration, Blood Plasma: BLQ (BLQ: below the limit of Quantitation, 0.2 ng/ml (blood plasma))
  Y31 (prototype) concentration, Liver: BLQ (BLQ: below the limit of Quantitation, 0.2 ng/ml (blood plasma); 1.0 ng/g(tissue))
  Y31 (prototype) concentration, Tumor: BLQ (BLQ: below the limit of Quantitation, 0.2 ng/ml (blood plasma); 1.0 ng/g(tissue))
[1]; after administration to nude mice
  maximum concentration of the prototype drug in blood plasma and tissues: less than 20 ng/ml or ng/g
[1]; blood plasma and tissues
  prototype drug 5 hours after the administration: not detectable
[1]; nude, mouse, liver, 0.5 h after administration, mean of 3 animals, read-out: Y31 (prototype) concentration, Liver, Mean Value
  concentration at 0.5 h: 9.72 ng/g
[1]; nude, mouse, liver, 2.0 h after administration, individual animals, read-out: Y31 (prototype) concentration, Liver
  concentration at 2 h: 12.4 ng/g
[1]; nude, mouse, liver, 2.0 h after administration, mean of 3 animals, read-out: Y31 (prototype) concentration, Liver, Mean Value
  concentration at 2 h: 14.4 ng/g
[1]; nude, mouse, liver, 5.0 h after administration, mean of 3 animals, read-out: Y31 (prototype) concentration, Liver, Mean Value
  concentration at 5 h: 1.32 ng/g
[1]; nude, mouse, plasma, 0.5 h after administration, individual animals, read-out: Y31 (prototype) concentration, Blood Plasma
  concentration at 0.5 h: 1.7 ng/mL
[1]; nude, mouse, plasma, 0.5 h after administration, mean of 3 animals, read-out: Y31 (prototype) concentration, Blood Plasma, Mean Value
  concentration at 0.5 h: 2.4 ng/mL
[1]; nude, mouse, plasma, 2.0 h after administration, mean of 3 animals, read-out: Y31 (prototype) concentration, Blood Plasma, Mean Value
  concentration at 2 h: 0.49 ng/mL
[1]; nude, mouse, plasma, 5.0 h after administration, individual animals, read-out: Y31 (prototype) concentration, Blood Plasma
  concentration at 5 h: 0.18 ng/mL
[1]; substance determined: Sirolimus, Liver
  AUC0-t (ng · h/g or ng · h/ml): 4031 ng·h/g
[1]; substance determined: Sirolimus, Tumor
  AUC0-t (ng · h/g or ng · h/ml): 2948 ng·h/g
[2]; Table 10
  Safety Index CC50/IC50: 1860.0
[2]; [8]
  CC50: 93 µM
[3]
  IC50: 0.05 µM
[4]
  CC50 at 48 h: 36.9 µM
[5]; ConA 5 μg/ml, 48 hours, 3H-TdR
  IC50: 0.331 µM
[6]; Table 5, oral 2.5 mg/kg
  Body Weight (g) end: 20.2 g
  Body Weight (g) start: 18.5 g
  RTV: 12 ± 6.7
  T/C (%): 49.0%
  TV (mm^3) d21: 975 ± 235 mm^3
  TV (mm^3) d0: 90 ± 27 mm^3
[6]; Table 5, oral 5 mg/kg
  Body Weight (g) end: 19.5 g
  Body Weight (g) start: 17.7 g
  RTV: 11 ± 7.2
  T/C (%): 44.0%
  TV (mm^3) d21: 967 ± 234 mm^3
  TV (mm^3) d0: 89 ± 19 mm^3
[7]; Table 4, 2.5 mg/kg po, 1-5/2 w
  Body Weight (g) end: 21.2 g
  Body Weight (g) start: 19.2 g
  RTV: 1.6 ± 0.6
  T/C (%): 37.1%
  TV (mm^3) d14: 259 ± 130 mm^3
  TV (mm^3) d0: 159 ± 36 mm^3
[7]; Table 4, 5 mg/kg po, 1-5/2 w
  Body Weight (g) end: 21.7 g
  Body Weight (g) start: 20.8 g
  RTV: 2.0 ± 0.5
  T/C (%): 45.5%
  TV (mm^3) d14: 316 ± 153 mm^3
  TV (mm^3) d0: 160 ± 53 mm^3
